Data: publication PMC6695594, “Discovery of (5-Phenylfuran-2-yl)methanamine Derivatives as New Human Sirtuin 2 Inhibitors” (Molecules, 2019)

Experiments:
human sirtuin 2 (SIRT2) [1] = target: T1, human sirtuin 2 (SIRT2) (Homo sapiens, UniProt Q8IXJ6); assay: fluorogenic p2270 trypsin-coupled assay, recombinant human SIRT2; type: biochemical; conditions: read-out: Inhibition% ^1/SIRT2-p2270 / @ 100 μM
T1 sequence (Q8IXJ6 2-389): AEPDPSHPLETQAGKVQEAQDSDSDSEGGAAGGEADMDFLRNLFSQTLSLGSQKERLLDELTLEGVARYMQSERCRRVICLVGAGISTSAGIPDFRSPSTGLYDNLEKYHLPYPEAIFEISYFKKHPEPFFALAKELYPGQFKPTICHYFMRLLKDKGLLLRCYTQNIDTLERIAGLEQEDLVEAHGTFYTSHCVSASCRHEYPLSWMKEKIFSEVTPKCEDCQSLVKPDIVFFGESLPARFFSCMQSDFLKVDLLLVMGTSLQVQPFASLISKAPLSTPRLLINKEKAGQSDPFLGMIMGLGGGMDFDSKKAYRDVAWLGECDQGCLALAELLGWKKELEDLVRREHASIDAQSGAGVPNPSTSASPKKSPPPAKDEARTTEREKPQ

human sirtuin 2 (SIRT2) [2] = target: T1, human sirtuin 2 (SIRT2); assay: biochemical; design: Fluorogenic p2270 (Ac-Glu-Thr-Asp-Lys(Dec)-AMC) trypsin-coupled assay on recombinant human SIRT2, ex 380/em 460 nm; conditions: for inhibition at 10 µM: read-out: Inhibition% ^1/SIRT2-p2270 / @ 10 μM
Description: This study tested the inhibitory activities of the synthesized compounds against recombinant human SIRT2 proteins using a fluorogenic substrate p2270(Ac-Glu-Thr-Asp-Lys(Dec)-AMC)-coupled trypsin assay. The assay buffer is 25 mM Tris–HCl pH 8.0, 150 mM NaCl, and 10% glycerol. The test compounds were added to 60 μL of reaction mixture containing SIRT2 enzymes (0.2 μM), and each compound was prepared in a 3-fold dilution series (300 μM–15 nM) with the final DMSO concentration < 1%. After incubation at 25 °C for 30 min, the reaction started by the addition of the substrate p2270 ([…]) and NAD^+([…]) at 25 °C. After 2 h, 50 μL 3~4 U/μL trypsin and 4 mM nicotinamide were added to terminate the reaction, followed by further incubation for 30 min at 25 °C. The fluorescence intensity was measured using a microplate reader (λex = 380 nm, λem = 460 nm). All determinations were performed in triplicate. The IC50 values were obtained using GraphPad Prism software as described previously. The enzyme activity assays were performed using a fluorogenic-based method, and Ac-Glu-Thr-Asp-Lys(Dec)-AMC, termed p2270, was used as the substrate. The SAR studies with all of the synthesized (5-phenylfuran-2-yl)methanamine derivatives (Table 1 and Table 2) were carried out. The compounds bearing various linkers or different substituents (A moiety) at 3- or 4-position of the [compound left out] of (5-phenylfuran-2-yl)methanamine scaffold (Table 1) were firstly investigated.

human sirtuin 2 (SIRT2) [3] = target: T1, human sirtuin 2 (SIRT2); assay: fluorogenic p2270 trypsin-coupled assay, recombinant human SIRT2; type: biochemical

Structure (SMILES) | inhibition at 100 µM (human sirtuin 2 (SIRT2) [1]) [%] | inhibition at 10 µM (human sirtuin 2 (SIRT2) [2]) [%] | inhibition at 100 µM (human sirtuin 2 (SIRT2) [2]; read-out: Inhibition% ^1/SIRT2-p2270 / @ 100 μM) [%] | IC50 (human sirtuin 2 (SIRT2) [3]) [nM]
CCOC(=O)c1ccc(-c2ccc(CNC(=O)Nc3cccnc3)o2)cc1 [compound 17, Ethyl 4-(5-((3-(pyridin-3-yl)ureido)methyl)furan-2-yl)benzoate] | 50 ± 4 | – | – | –
N#C/C(=C\c1ccc(-c2cc(Cl)ccc2Cl)o1)C(=O)Nc1cccc2ncccc12 [AGK2] | – | 30 ± 5 | 80 ± 6 | –
O=C(NCc1ccc(-c2cc(Cl)ccc2Cl)o1)Nc1cccc2ncccc12 [compound 12, 1-((5-(2,5-Dichlorophenyl)furan-2-yl)methyl)-3-(quinolin-5-yl)urea] | 60 ± 3 | 33 ± 3 | – | –
O=C(NCc1ccc(-c2ccc(C(F)(F)F)cc2)o1)Nc1cccnc1 [compound 18, 1-(Pyridin-3-yl)-3-((5-(4-(trifluoromethyl)phenyl)furan-2-yl)methyl)urea] | 40 ± 5 | – | – | –

Next, values leading:

inhibition at 100 µM (human sirtuin 2 (SIRT2) [1]) [%] | inhibition at 10 µM (human sirtuin 2 (SIRT2) [2]) [%] | inhibition at 100 µM (human sirtuin 2 (SIRT2) [2]; read-out: Inhibition% ^1/SIRT2-p2270 / @ 100 μM) [%] | IC50 (human sirtuin 2 (SIRT2) [3]) [nM] | Structure (SMILES)
46 ± 4 | 33 ± 3 | – | – | O=C(NCc1ccc(-c2ccc(C(=O)O)cc2)o1)Nc1ccccc1 [compound 21, 4-(5-((3-Phenylureido)methyl)furan-2-yl)benzoic Acid]
43 ± 2 | – | – | – | O=C(NCc1ccc(-c2ccc(C(=O)O)c(O)c2)o1)Nc1ccccc1 [compound 24, 2-Hydroxy-4-(5-((3-phenylureido)methyl)furan-2-yl)benzoic Acid]
63 ± 5 | 35 ± 3 | – | – | O=C(NCc1ccc(-c2ccc(C(=O)O)cc2)o1)Nc1cccc2ncccc12 [compound 20, 4-(5-((3-(quinolin-5-yl)ureido)methyl)furan-2-yl)benzoic acid]
– | – | – | 2470 | O=C(NCc1ccc(-c2ccc(C(=O)O)cc2)o1)Nc1cccnc1 [compound 25, 4-(5-((3-(Pyridin-3-yl)ureido)methyl)furan-2-yl)benzoic Acid]
44 ± 5 | 23 ± 3 | – | – | O=C(O)c1ccc(-c2ccc(CNC(=S)Nc3ccccc3)o2)cc1 [compound 22, 4-(5-((3-Phenylthioureido)methyl)furan-2-yl)benzoic Acid]
